The source of these data is patent publication US20110263642A1, “METHODS FOR TREATMENT OF MULTIPLE SCLEROSIS” (FibroGen, Inc., priority 2008, published 2011).

The structures appear in SMILES notation. Read-outs that look alike come from different tables or passages of the source.

Test [1] deals with Oligodendrocytes (MO3.13 cells). Nature of the test: Ceramide-induced cell death of oligodendrocytes, Calcein AM viability. It counts as cell-based. As to conditions: compound 20 μM, non-ceramide control = 100. The source says: (See e.g., Craighead et al. (2000) Neurosci Lett. 278:125-8; Jana et al. (2007) J Neuroimmune Pharmacol. 2:184-93; Jana et al. (2009) J Neurol Sci. 278:5-15; Singh et al. (1998) J Biol. Chem. 273:20354-62.) In this model, addition of ceramide to cultured oligodendrocytes results in oxidative stress-induced cell death (i.e. apoptosis). The effect of compounds and methods of the present invention on the ability to improve oligodendrocyte viability following ceramide challenge was examined as follows. Oligodendrocytes (MO3.13 cells; Cedarlane Laboratories, Burlington, N.C.) were plated in 96-well culture dishes at a density of 4000 cells per well and cultured at 37° C., 10% CO2 in DMEM containing L-glutamine, sodium pyruvate, and 25 mM glucose (Mediatech Inc., Manassas, Va.) and supplemented with 10% FBS (Invitrogen Corporation, Carlsbad, Calif.). The next day, the plating media was removed and replaced with DMEM containing L-glutamine (Invitrogen Corporation, Carlsbad, Calif.) and supplemented with 5.5 mM glucose. Cells were then treated with vehicle (0.015% DMSO) or ceramide (Sigma-Aldrich, St. Louis, Mo.) plus vehicle (0.05% DMSO) or a compound of the invention (20 μM).
For cells treated longer than 3 days, half the media was removed after the third day of treatment and replaced with an equal volume of fresh treatment media containing vehicle (0.015% DMSO) or ceramide plus vehicle (0.05% DMSO) or a compound of the invention.
Cell viability was assessed 3, 4, and 5 days after treatment using the following protocol. Treatment media was removed from the cells and 100 ul of 1.67 uM Calcein AM reagent (Invitrogen Corporation, Carlsbad, Calif.) prepared in DMEM containing L-glutamine (Invitrogen Corporation, Carlsbad, Calif.) and supplemented with 5.5 mM glucose was added to each well. Cells were returned to 37° C. in a 10% CO2 incubator for approximately 30 minutes before assessing fluorescence (Ex 485 nm/Em 538 nm) using a microplate reader (Molecular Devices, Sunnyvale, Calif.). Images were taken of representative wells using a fluorescent microscope equipped with a camera (Nikon, Melville, N.Y.) and imaging software (Nikon, Melville, N.Y.).

Test [2] relates to EAE animal model of chronic progressive multiple sclerosis. In words: Chronic progressive EAE induced by MOG35-55 and pertussis toxin in mice, neurological scoring to day 35. It counts as in vivo, C57BL/6 mice. The source says: A chronic progressive model of EAE is an accepted animal model of human chronic progressive multiple sclerosis (MS). In this model, induction of chronic progressive EAE occurs following injections of myelin oligodendrocyte glycoprotein (MOG). Approximately 8 to 14 days after injection of MOG, animals develop chronic progressive paralysis similar to that observed in humans with chronic progressive MS.
Female C57BL/6 mice (8-10 weeks old) were used in this study (Taconic Farm, CA). Compounds of the present invention were formulated in 0.5% carboxymethyl cellulose (CMC) with 0.1% Polysorbate 80 to achieve a final concentration of either 1.2 mg/ml or 4.0 mg/ml. FTY-720 was also formulated in 0.5% carboxymethyl cellulose (CMC) with 0.1% Polysorbate 80 to achieve a final concentration of 2.0 mg/ml.
Induction of chronic progressive EAE by injection with myelin oligodendrocyte glycoprotein (MOG) was performed as follows. Mice were injected subcutaneously with 200 μg of myelin oligodendrocyte glycoprotein (MOG35-55) peptide emulsion in both sides of their pectoral regions (50 μl each side). At 8 hours and 48 hr after immunization with MOG, animals were injected intraperitoneally with 400 ng of pertussis toxin (PT) in 100 μl of saline. Control mice received both injections with an equivalent volume of saline without MOG or PT.
[…] FTY-720 (10 mg/kg) was used in this study as a positive control and was administered daily from day 0 to day 35.
Neurological scoring was performed daily from day 7 to day 35 following MOG injection. Grading of disease severity (i.e., disease score) was based on the following observations performed by two different observers: 0=no abnormality; 1=distal weakness of the tail (limp tail); 2=limp tail and weakness of hind legs (mild paraparesis); 3=limp tail and complete paralysis of hind legs or paralysis in one of one front leg and one hind leg (moderate paraparesis); 4=limp tail, complete hind leg and partial front leg paralysis (moderate quadraparesis); 5=complete hind and front leg paralysis (moribund). Analysis of variance (ANOVA) was performed on data from the measured (neurological score) parameters. p value≦0.05 were considered significant.

[3] abbreviates: 72 h, ceramide 2.25 μM, read-out: % Viable at Day 3.
Setting [4] is: 96 h, ceramide 2.25 μM, read-out: % Viable at Day 4.
Setting [5] is: 120 h, ceramide 2.25 μM, read-out: % Viable at Day 5.
Where [6] appears, read: 72 h, ceramide 2.75 μM, read-out: % Viable at Day 3.
The mark [7] stands for this setting: 96 h, ceramide 2.75 μM, read-out: % Viable at Day 4.
Setting [8] is: 120 h, ceramide 2.75 μM, read-out: % Viable at Day 5.

Turning to `Cc1ccc(Oc2cccc3c(C#N)nc(C(=O)NCC(=O)O)c(O)c23)cc1` [Compound B, [(1-Cyano-4-hydroxy-5-p-tolyloxy-isoquinoline-3-carbonyl)-amino]-acetic acid], the viability at 20 µM in test [1] (setting [3]) was 76%; in test [1] (setting [4]), 54%; in test [1] (setting [5]), 16%.
The corresponding values for `Cc1ccc(Oc2cccc3c(O)c(C(=O)NCC(=O)O)nc(-c4cccnc4)c23)cc1` [Compound C, [(4-Hydroxy-1-pyridin-3-yl-8-p-tolyloxy-isoquinoline-3-carbonyl)-amino]-acetic acid] are 61%, 51% and 16%.
Take `COc1cc(F)cc(Oc2ccc3c(O)c(C(=O)NCC(=O)O)ncc3c2)c1` [Compound D, {[7-(3-Fluoro-5-methoxy-phenoxy)-4-hydroxy-isoquinoline-3-carbonyl]-amino}-acetic acid]: the viability at 20 µM is 79% in test [1] (setting [6]), 74% in test [1] (setting [7]) and 61% in test [1] (setting [8]).
The like results for `COc1cccc(Oc2cccc3c(O)c(C(=O)NCC(=O)O)ncc23)c1` [Compound E, {[4-Hydroxy-8-(3-methoxy-phenoxy)-isoquinoline-3-carbonyl]-amino}-acetic acid] were, in that order, 84%, 74% and 71%.
Take `O=C(O)CNC(=O)c1ncc2cc(Oc3ccccc3)ccc2c1O` [Compound F, [(4-Hydroxy-7-phenoxy-isoquinoline-3-carbonyl)-amino]-acetic acid]: the viability at 20 µM in test [1] (setting [3]) was 85%; in test [1] (setting [6]) it was 72%; in test [1] (setting [4]), 66%; in test [1] (setting [7]), 53%; in test [1] (setting [5]) it was 62%; in test [1] (setting [8]), 51%.
On to `O=C(O)CNC(=O)c1c(O)c2cccn2n(Cc2ccc(C(F)(F)F)cc2)c1=O` [Compound G, {[4-Hydroxy-2-oxo-1-(4-trifluoromethyl-benzyl)-1,2-dihydro-pyrrolo[1,2-b]pyridazine-3-carbonyl]-amino}-acetic acid], for which the values for the viability at 20 µM in test [1] (setting [3]), in test [1] (setting [4]) and in test [1] (setting [5]) were 94%, 86% and 80%, respectively.
Turning to `C[C@H](NC(=O)c1c(O)c2cc(Cl)cn2n(Cc2ccc(C(F)(F)F)cc2)c1=O)C(=O)O` [Compound H, (S)-2-{[6-Chloro-4-hydroxy-2-oxo-1-(4-trifluoromethyl-benzyl)-1,2-dihydro-pyrrolo[1,2-b]pyridazine-3-carbonyl]-amino}-propionic acid], the viability at 20 µM is 73% in test [1] (setting [6]), 74% in test [1] (setting [7]) and 77% in test [1] (setting [8]).
The corresponding values for `O=C(O)CNC(=O)c1c(O)c2cc(Cl)cn2n(Cc2ccc(Cl)cc2)c1=O` [Compound I, {[6-Chloro-1-(4-chloro-benzyl)-4-hydroxy-2-oxo-1,2-dihydro-pyrrolo[1,2-b]pyridazine-3-carbonyl]-amino}-acetic acid] are 76%, 66% and 64%.
As for `O=C(O)CNC(=O)c1c(O)c2ccc(-c3ccc(Oc4ccccc4)cc3)cc2oc1=O` [Compound J, {[4-Hydroxy-2-oxo-7-(4-phenoxy-phenyl)-2H-chromene-3-carbonyl]-amino}-acetic acid], the viability at 20 µM in test [1] (setting [6]) was 70%; in test [1] (setting [7]), 36%; in test [1] (setting [8]) it was 22%.
In the case of `CCCCCCOc1ccc2oc(=O)c(C(=O)NCC(=O)O)c(O)c2c1` [Compound K, [(6-Hexyloxy-4-hydroxy-2-oxo-2H-chromene-3-carbonyl)-amino]-acetic acid], the viability at 20 µM is 72% in test [1] (setting [6]), 43% in test [1] (setting [7]) and 56% in test [1] (setting [8]).
The corresponding values for `COc1ccc(-c2ccc3c(O)c(C(=O)NCC(=O)O)c(=O)sc3c2)cc1` [Compound L, {[4-Hydroxy-7-(4-methoxy-phenyl)-2-oxo-2H-thiochromene-3-carbonyl]-amino}-acetic acid] are 75%, 59% and 64%.
As to `CCCCOc1ccc2c(O)c(C(=O)NCC(=O)O)c(=O)sc2c1` [Compound M, [(7-Butoxy-4-hydroxy-2-oxo-2H-thiochromene-3-carbonyl)-amino]-acetic acid], the viability at 20 µM in test [1] (setting [6]) is 74%; in test [1] (setting [7]), 57%; in test [1] (setting [8]) it was 59%.
The corresponding values for `CC1(C)C(=O)C(C(=O)NCC(=O)O)=C(O)c2cc(Cl)ccc21` [Compound N, [(7-Chloro-1-hydroxy-4,4-dimethyl-3-oxo-3,4-dihydro-naphthalene-2-carbonyl)-amino]-acetic acid] are 82%, 67% and 67%.
Turning to `N#Cc1nc(C(=O)NCC(=O)O)c(O)c2ccn(Cc3ccccc3F)c12` [Compound O, {[7-Cyano-1-(2-fluoro-benzyl)-4-hydroxy-1H-pyrrolo[2,3-c]pyridine-5-carbonyl]-amino}-acetic acid], the viability at 20 µM in test [1] (setting [6]) was 74%; in test [1] (setting [7]) it was 53%; in test [1] (setting [8]), 52%.
Turning to `N#Cc1nc(C(=O)NCC(=O)O)c(O)c2ccn(Cc3ccc(-c4ccccc4)cc3)c12` [Compound P, [(1-Biphenyl-4-ylmethyl-7-cyano-4-hydroxy-1H-pyrrolo[2,3-c]pyridine-5-carbonyl)-amino]-acetic acid], the viability at 20 µM was 79% in test [1] (setting [3]), 80% in test [1] (setting [4]) and 77% in test [1] (setting [5]).
As for `COc1ccc(Cn2c(Cl)c(Cl)c3c(O)c(C(=O)NCC(=O)O)nc(C#N)c32)cc1` [Compound Q, {[2,3-Dichloro-7-cyano-4-hydroxy-1-(4-methoxy-benzyl)-1H-pyrrolo[2,3-c]pyridine-5-carbonyl]-amino}-acetic acid], the viability at 20 µM in test [1] (setting [6]) was 70%; in test [1] (setting [7]) it was 59%; in test [1] (setting [8]) it was 50%.
`CCCCCCCCc1ccc(CCC(N)(CO)CO)cc1` [FTY-720, reference compound]: in test [2] (10 mg/kg daily, day 0 to day 35), the “development of EAE disease (positive control)” value is reported as “prevented the development of EAE disease”. For the same compound, in test [2] (through day 35, FTY-720 (Table 3: 10 mg/kg/d, daily)), the “No. of Animals Showing No Disease Activity” value is given as 7/7.
